Assay results reported in ChEMBL document CHEMBL4396963, “An exploration of solvent-front region high affinity moiety leading to novel potent ALK & ROS1 dual inhibitors with mutant-combating effects” (Bioorg Med Chem, 2019).
Active and inactive are the calls of the source. The rule behind the calls is not given here.

Legend:
[1] = target: ALK tyrosine kinase receptor (Homo sapiens, UniProt Q9UM73, G1202R); assay: Inhibition of recombinant human N-terminal GST-tagged ALK (1058 to 1620 residues) cytoplasmic domain G1202R mutant using srctide as substrate incubated for 1 hr by mobility shift assay
Chain of ALK tyrosine kinase receptor (Homo sapiens, UniProt Q9UM73, G1202R) (Q9UM73 19-1620 G1202R limits assumed): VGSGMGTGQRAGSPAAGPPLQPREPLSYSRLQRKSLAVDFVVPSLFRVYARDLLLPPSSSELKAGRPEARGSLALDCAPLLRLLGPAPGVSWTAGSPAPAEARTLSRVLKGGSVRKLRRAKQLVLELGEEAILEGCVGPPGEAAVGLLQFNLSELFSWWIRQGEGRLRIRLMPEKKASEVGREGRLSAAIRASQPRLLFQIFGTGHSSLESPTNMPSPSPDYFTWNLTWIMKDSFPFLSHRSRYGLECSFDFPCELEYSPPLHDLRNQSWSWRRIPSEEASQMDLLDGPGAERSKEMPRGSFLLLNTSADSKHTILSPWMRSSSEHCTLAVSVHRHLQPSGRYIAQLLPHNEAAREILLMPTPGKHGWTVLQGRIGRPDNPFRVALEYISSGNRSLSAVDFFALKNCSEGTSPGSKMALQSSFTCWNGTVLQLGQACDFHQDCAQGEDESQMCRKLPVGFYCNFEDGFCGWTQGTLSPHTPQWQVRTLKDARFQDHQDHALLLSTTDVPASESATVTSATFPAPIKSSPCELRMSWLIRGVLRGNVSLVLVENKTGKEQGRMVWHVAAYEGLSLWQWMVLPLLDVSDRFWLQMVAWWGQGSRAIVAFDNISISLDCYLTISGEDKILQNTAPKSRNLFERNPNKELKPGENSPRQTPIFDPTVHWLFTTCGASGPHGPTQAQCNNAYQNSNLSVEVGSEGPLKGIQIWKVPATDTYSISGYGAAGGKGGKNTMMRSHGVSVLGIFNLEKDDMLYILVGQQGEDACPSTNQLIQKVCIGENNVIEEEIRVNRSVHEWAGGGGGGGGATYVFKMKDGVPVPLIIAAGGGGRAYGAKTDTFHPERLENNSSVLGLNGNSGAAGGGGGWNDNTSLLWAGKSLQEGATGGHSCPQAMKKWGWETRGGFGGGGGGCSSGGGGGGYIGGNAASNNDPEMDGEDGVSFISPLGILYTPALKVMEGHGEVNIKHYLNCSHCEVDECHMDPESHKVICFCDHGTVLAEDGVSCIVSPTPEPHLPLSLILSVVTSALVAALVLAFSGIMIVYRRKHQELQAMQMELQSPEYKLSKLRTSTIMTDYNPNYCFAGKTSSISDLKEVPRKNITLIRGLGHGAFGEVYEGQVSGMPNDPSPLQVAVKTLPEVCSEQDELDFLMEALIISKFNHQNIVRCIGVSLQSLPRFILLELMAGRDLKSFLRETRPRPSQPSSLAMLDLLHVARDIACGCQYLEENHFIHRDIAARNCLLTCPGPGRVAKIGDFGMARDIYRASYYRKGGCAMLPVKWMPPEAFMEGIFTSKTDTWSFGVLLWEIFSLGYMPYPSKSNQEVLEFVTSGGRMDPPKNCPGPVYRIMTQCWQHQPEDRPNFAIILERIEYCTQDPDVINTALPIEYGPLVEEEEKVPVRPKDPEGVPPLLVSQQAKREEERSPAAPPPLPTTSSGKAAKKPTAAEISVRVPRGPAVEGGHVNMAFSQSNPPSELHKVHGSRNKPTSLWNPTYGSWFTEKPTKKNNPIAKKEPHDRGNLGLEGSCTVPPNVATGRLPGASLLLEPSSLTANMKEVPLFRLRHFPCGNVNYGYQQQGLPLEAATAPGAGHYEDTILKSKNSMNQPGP

[2] = test system: HT-29; assay: cells; settings: Homo sapiens, HT-29, 72 h
Description: Antiproliferative activity against human HT-29 cells assessed as reduction in cell viability incubated for 72 hrs by MTT assay

[3] = test system: KARPAS-299; assay: Antiproliferative activity against human KARPAS299 cells assessed as reduction in cell viability incubated for 72 hrs by MTT assay; format: functional, cell-based; settings: KARPAS-299, 72 h
[4] = test system: NCI-H2228; assay: Antiproliferative activity against human NCI-H2228 cells assessed as reduction in cell viability incubated for 72 hrs by MTT assay; format: functional, cell-based; settings: NCI-H2228, 72 h
[5] = target: Proto-oncogene tyrosine-protein kinase ROS (Homo sapiens, UniProt P08922); assay: Inhibition of recombinant human N-terminal GST-tagged ROS (1883 to 2347 residues) cytoplasmic domain expressed in baculovirus expression system using IRS1 as substrate incubated for 1 hr by mobility shift assay
Chain of Proto-oncogene tyrosine-protein kinase ROS (P08922 whole entry, the tested form may be a part): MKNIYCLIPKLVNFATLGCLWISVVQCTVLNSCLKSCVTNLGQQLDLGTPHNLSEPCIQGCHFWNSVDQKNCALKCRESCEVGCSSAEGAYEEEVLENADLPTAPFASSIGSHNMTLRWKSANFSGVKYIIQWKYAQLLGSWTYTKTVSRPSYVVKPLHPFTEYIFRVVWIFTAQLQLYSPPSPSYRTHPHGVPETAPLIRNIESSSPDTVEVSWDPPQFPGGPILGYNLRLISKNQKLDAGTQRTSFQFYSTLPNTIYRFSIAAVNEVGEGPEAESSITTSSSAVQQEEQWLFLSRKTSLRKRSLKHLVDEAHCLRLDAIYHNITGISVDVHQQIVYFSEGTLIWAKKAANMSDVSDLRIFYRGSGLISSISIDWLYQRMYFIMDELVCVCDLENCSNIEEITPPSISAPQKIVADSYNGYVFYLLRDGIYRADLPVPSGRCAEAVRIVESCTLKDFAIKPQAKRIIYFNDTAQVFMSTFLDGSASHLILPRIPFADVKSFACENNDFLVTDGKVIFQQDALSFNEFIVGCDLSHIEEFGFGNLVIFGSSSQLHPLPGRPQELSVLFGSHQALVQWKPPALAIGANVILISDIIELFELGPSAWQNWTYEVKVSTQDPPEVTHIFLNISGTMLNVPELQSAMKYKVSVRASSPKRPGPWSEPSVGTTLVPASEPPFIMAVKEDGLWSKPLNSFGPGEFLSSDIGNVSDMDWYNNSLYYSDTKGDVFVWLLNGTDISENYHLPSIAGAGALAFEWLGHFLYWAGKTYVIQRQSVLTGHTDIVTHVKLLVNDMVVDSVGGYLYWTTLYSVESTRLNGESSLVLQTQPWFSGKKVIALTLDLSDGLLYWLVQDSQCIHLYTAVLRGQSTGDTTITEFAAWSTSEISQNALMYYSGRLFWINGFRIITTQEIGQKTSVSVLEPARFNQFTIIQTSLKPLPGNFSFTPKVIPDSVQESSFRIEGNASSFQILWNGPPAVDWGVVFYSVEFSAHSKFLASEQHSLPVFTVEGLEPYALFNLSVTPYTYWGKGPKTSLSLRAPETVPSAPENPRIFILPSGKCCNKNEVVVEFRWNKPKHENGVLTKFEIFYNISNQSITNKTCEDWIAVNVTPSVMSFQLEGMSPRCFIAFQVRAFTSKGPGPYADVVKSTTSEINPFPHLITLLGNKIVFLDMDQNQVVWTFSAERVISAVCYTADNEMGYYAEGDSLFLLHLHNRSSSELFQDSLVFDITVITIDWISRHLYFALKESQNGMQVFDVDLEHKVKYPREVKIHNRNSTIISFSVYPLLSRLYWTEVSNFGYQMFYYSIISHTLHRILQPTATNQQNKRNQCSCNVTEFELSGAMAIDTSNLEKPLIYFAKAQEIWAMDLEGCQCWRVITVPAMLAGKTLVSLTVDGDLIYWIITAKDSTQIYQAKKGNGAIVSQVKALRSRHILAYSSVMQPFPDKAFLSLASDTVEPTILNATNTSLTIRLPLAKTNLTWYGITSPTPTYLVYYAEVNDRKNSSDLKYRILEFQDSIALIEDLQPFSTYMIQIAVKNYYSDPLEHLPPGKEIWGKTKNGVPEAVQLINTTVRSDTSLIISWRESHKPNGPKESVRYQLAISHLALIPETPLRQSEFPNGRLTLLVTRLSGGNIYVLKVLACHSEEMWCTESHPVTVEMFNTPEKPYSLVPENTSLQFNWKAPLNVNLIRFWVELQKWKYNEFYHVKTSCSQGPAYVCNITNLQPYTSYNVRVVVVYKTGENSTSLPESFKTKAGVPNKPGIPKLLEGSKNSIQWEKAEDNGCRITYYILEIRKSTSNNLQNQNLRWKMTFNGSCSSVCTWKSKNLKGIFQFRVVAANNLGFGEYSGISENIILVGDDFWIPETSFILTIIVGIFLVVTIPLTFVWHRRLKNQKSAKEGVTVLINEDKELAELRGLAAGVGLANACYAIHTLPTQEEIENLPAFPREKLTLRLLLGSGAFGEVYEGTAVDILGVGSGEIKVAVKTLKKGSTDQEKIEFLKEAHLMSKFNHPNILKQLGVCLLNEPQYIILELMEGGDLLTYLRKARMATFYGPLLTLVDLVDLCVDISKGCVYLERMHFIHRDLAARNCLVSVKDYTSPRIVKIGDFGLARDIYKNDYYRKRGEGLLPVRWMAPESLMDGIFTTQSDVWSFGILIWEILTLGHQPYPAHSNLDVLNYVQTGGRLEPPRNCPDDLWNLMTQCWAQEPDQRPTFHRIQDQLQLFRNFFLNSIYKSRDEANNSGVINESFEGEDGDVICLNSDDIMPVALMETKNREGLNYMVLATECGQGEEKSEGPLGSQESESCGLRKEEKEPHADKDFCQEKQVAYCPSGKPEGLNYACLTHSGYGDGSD

[6] = target: ALK tyrosine kinase receptor (Homo sapiens, UniProt Q9UM73); assay: Inhibition of recombinant human N-terminal GST-tagged ALK (1058 to 1620 residues) cytoplasmic domain expressed in baculovirus expression system using srctide as substrate incubated for 1 hr by mobility shift assay
[7] = test system: A549; assay: Antiproliferative activity against human A549 cells harbouring […] mutant assessed as reduction in cell viability incubated for 72 hrs by MTT assay; format: functional, cell-based; settings: A549, 72 h
[8] = target: Hepatocyte growth factor receptor (Homo sapiens, UniProt P08581); assay: Inhibition of recombinant human N-terminal GST-tagged MET (956 to 1390 residues) cytoplasmic domain expressed in baculovirus expression system using Srctide as substrate incubated for 1 hr by mobility shift assay
[9] = target: ALK tyrosine kinase receptor (Homo sapiens, UniProt Q9UM73, L1196M); assay: Inhibition of recombinant human N-terminal GST-tagged ALK (1058 to 1620 residues) cytoplasmic domain L1196M mutant expressed in baculovirus expression system using srctide as substrate incubated for 1 hr by mobility shift assay
Chain of ALK tyrosine kinase receptor (Homo sapiens, UniProt Q9UM73, L1196M) (Q9UM73 19-1620 L1196M limits assumed): as the sequence (Q9UM73 19-1620 G1202R limits assumed) above, with L1178M, R1184G counted along it

[10] = target: Epidermal growth factor receptor (Homo sapiens, UniProt P00533)
Description: Inhibition of recombinant human N-terminal GST-tagged EGFR (669 to 1210 residues) cytoplasmic domain expressed in baculovirus expression system using Srctide as substrate incubated for 1 hr by mobility shift assay

[11] = test system: HCC78; assay: Antiproliferative activity against human HCC78 cells assessed as reduction in cell viability incubated for 72 hrs by MTT assay; format: functional, cell-based; settings: HCC78, 72 h
[12] = test system: A549; assay: cells; settings: Homo sapiens, A549, 72 h
[13] = test system: NCI-H2228; assay: Induction of apoptosis in human NCI-H2228 cells assessed as increase in nuclear fragmentation at 30 nM incubated for 48 hrs by AO/EB staining based fluorescence microscopy; format: functional, cell-based
[14] = test system: NCI-H2228; assay: Induction of apoptosis in human NCI-H2228 cells assessed as increase in cell membrane damage incubated for 48 hrs by Hoechst 33258 staining based fluorescence microscopy; format: functional
[15] = test system: NCI-H2228; assay: Induction of apoptosis in human NCI-H2228 cells assessed as increase in nuclear shrinkage incubated for 48 hrs by AO/EB staining based fluorescence microscopy; format: functional, cell-based
[16] = test system: NCI-H2228; assay: Induction of apoptosis in human NCI-H2228 cells assessed as increase in nuclei damage at 30 nM incubated for 48 hrs by Hoechst 33258 staining based fluorescence microscopy; format: functional, cell-based
[17] = test system: NCI-H2228; assay: Induction of apoptosis in human NCI-H2228 cells assessed as increase in cell membrane damage at 30 nM incubated for 48 hrs by Hoechst 33258 staining based fluorescence microscopy; format: functional
[18] = test system: NCI-H2228; assay: Induction of apoptosis in human NCI-H2228 cells assessed as increase in nuclear shrinkage at 30 nM incubated for 48 hrs by AO/EB staining based fluorescence microscopy; format: functional, cell-based
[19] = test system: A549; assay: Potency index, ratio of IC50 of ceritinib to IC50 of compound for antiproliferative activity against human A549 cells harbouring […] mutant assessed as reduction in cell viability incubated for 72 hrs by MTT assay; format: functional
[20] = test system: NCI-H2228; assay: Induction of apoptosis in human NCI-H2228 cells assessed as increase in nuclear fragmentation incubated for 48 hrs by AO/EB staining based fluorescence microscopy; format: functional, cell-based
[21] = test system: NCI-H2228; assay: Induction of apoptosis in human NCI-H2228 cells assessed as increase in nuclei damage incubated for 48 hrs by Hoechst 33258 staining based fluorescence microscopy; format: functional, cell-based

With `COc1cc(NC(=O)N2CCN(CCO)CC2)ccc1Nc1ncc(Cl)c(Nc2ccccc2NC(C)=O)n1` the IC50 [1] was 6.3 nM, the IC50 [2] was 4030 nM and the IC50 [3] was 93 nM. For the same molecule, the IC50 [4] was 260 nM, the IC50 [5] was 1.7 nM and the IC50 [6] was 6.3 nM. For the same molecule, the IC50 [7] was 270 nM, the IC50 [8] was > 1000 nM and the IC50 [9] was 2.7 nM. The IC50 [10] was > 1000 nM, the IC50 [11] was 130 nM and the IC50 [12] was > 10000 nM.
For `COc1cc(N2CCCNC2=O)ccc1Nc1ncc(Cl)c(Nc2ccccc2NC(C)=O)n1`, the IC50 [1] was 10.2 nM, the IC50 [2] was 6070 nM and the IC50 [3] was 100 nM. For the same molecule, the IC50 [4] was 220 nM, the IC50 [5] was 5.3 nM and the IC50 [6] was 4.7 nM. For the same molecule, the IC50 [7] was 170 nM, the IC50 [8] was > 1000 nM and the IC50 [9] was 5.1 nM. The IC50 [10] was > 1000 nM, the IC50 [11] was 89 nM and the IC50 [12] was > 10000 nM.
In the case of `COc1cc(NC(=O)NC2CCC(=O)CC2)ccc1Nc1ncc(Cl)c(Nc2ccccc2NC(C)=O)n1`, the IC50 [1] is reported as 9.3 nM, the IC50 [2] is reported as > 10000 nM and the IC50 [3] is reported as 77 nM. The IC50 [4] was 550 nM, the IC50 [5] was 3.7 nM and the IC50 [6] was 2.5 nM. It also gave an IC50 [7] of 190 nM, an IC50 [8] of 325 nM and an IC50 [9] of 3.9 nM. The IC50 [10] was > 1000 nM, the IC50 [11] was 67 nM and the IC50 [12] was 1720 nM.
`COc1cc(N2CCCC2=O)ccc1Nc1ncc(Cl)c(Nc2ccccc2NC(C)=O)n1` gave an IC50 [1] of 15.7 nM, an IC50 [2] of 1530 nM and an IC50 [3] of 220 nM. For the same molecule, the IC50 [4] was 220 nM, the IC50 [5] was 4.4 nM and the IC50 [6] was 6.2 nM. For the same molecule, the IC50 [7] was 410 nM, the IC50 [8] was 532 nM and the IC50 [9] was 2.9 nM. The IC50 [10] was > 1000 nM, the IC50 [11] was 97 nM and the IC50 [12] was 4130 nM.
Work on `COc1cc(NC(=O)N2CCCC2)ccc1Nc1ncc(Cl)c(Nc2ccccc2NC(C)=O)n1` yielded an IC50 [1] of 7.1 nM, an IC50 [2] of 1270 nM and an IC50 [3] of 160 nM. For the same molecule, the IC50 [4] was 79 nM, the IC50 [5] was 0.97 nM and the IC50 [6] was 5.1 nM. For the same molecule, the IC50 [7] was 360 nM, the IC50 [8] was > 1000 nM and the IC50 [9] was 3.7 nM. For the same molecule, the IC50 [10] was > 1000 nM, the IC50 [11] was 870 nM and the IC50 [12] was > 10000 nM.
`COc1cc(NC(=O)C2CC2)ccc1Nc1ncc(Cl)c(Nc2ccccc2NC(C)=O)n1` gave an IC50 [1] of 11.5 nM, an IC50 [2] of 2960 nM and an IC50 [3] of 1060 nM. The IC50 [4] was 490 nM, the IC50 [5] was 3.2 nM and the IC50 [6] was 4.1 nM. The IC50 [7] was 930 nM, the IC50 [8] was > 1000 nM and the IC50 [9] was 6.6 nM. The IC50 [10] was 617 nM, the IC50 [11] was 230 nM and the IC50 [12] was > 10000 nM.
`COc1cc(NC(=O)N2CCOCC2)ccc1Nc1ncc(Cl)c(Nc2ccccc2NC(C)=O)n1` was tested, and the IC50 [1] was 4.3 nM, the IC50 [2] was > 10000 nM and the IC50 [3] was 27 nM. The Activity [13] was “Active”, the Activity [14] was “Dose-dependent effect” and the IC50 [4] was 56 nM. For the same molecule, the IC50 [5] was 0.73 nM, the Activity [15] was “Dose-dependent effect” and the Activity [16] was “Active”. The IC50 [6] was 2.1 nM, the Activity [17] was “Active” and the IC50 [7] was 30 nM. The Activity [18] was “Active”, the IC50 [8] was > 1000 nM and the IC50 [9] was 0.91 nM. The IC50 [10] was > 1000 nM, the IC50 [11] was 41 nM and the IC50 [12] was 1610 nM. For the same molecule, the “Ratio IC50” value [19] was 16.5, the Activity [20] was “Dose-dependent effect” and the Activity [21] was “Dose-dependent effect”.
